Patent US20080146641A1, “ANTIBACTERIAL COMPOSITION” (priority 2001, published 2008)
Values after ≈ are worked out from the molar mass of the structure shown. Where two headings read alike, the source gives them in different places.

Columns and labels:
[1] = Antibacterial effect, test not described
[2] = system: Escherichia coli IFO 3301; test: Minimum inhibitory concentration, agar plate for measuring susceptibility; assay type: cell-based; settings: for MIC: Escherichia coli, IFO3301, read-out: Minimum Inhibitory Concentration CaO, Escherichia coli IFO 3301 (Gram-negative bacteria)
[3] = system: Staphylococcus aureus IFO 12732; test: as above; assay type: cell-based; settings: for MIC: Staphylococcus aureus, IFO12732, read-out: Minimum Inhibitory Concentration CaO, Staphylococcus aureus IFO 12732 (Gram-positive bacteria)
[4] = system: Bacillus cereus IFO 13494; test: Antibacterial spectrum, MIC on Muller Hinton Agar; assay type: cell-based; settings: Comparison 1 is a reference value (suspension at not less than 1400 μg)
[5] = system: Clostridium perfingens NCTC 8283; assay type: cell-based, Clostridium perfringens; settings: Comparison 1 is a reference value (suspension at not less than 1400 μg)
[6] = system: Saccharomyces cerevisiae IFO 1950; test: Antibacterial spectrum, MIC on Sabouraud Glucose agar medium; assay type: cell-based; settings: Comparison 1 is a reference value
Procedure: […] Additionally, as to the other α-amino acids used as the raw materials, flat plates for measuring susceptibility each of which contains a 500 to 20,000 μg/ml α-amino acid were prepared. […] The bacterial liquid for inoculation was drawn In lines and painted 1 to 2 cm on each flat plate for measuring susceptibility with a plastic loop, and incubated at 35° C. 1° C. for 18 to 20 hours. The lowest concentrations in which the painted parts were blocked to grow were defined as the minimum bacteriostasis concentrations of the antibacterial compositions, and the calcium oxide, the calcium hydroxide, and the α-amino acids used as the raw materials in the embodiments 1 through 16.
The minimum inhibitory concentrations to these typical kinds of bacteria were measured, however, the antibacterial compositions of the present invention are not to be restricted to the kinds of bacteria shown in the embodiments. Although the measuring method was similar to that of the embodiment 17, as the culture media for measuring susceptibility, Muller Hinton Agar (Difco) was used for enterococcus, cereus, salmonella, and pseudomonas aeruginosa; Brain Heart Infusion Agar (Difco) was used for lactobacillus; GAM agar medium (Nissui Pharmaceutical Co., Ltd.) was used for welsh; and Sabouraud Glucoss agar medium (Eiken Chemical Co., Ltd.) was used for saccharomyces.

[7] = system: Lactobacillus plantarum (lactic acid bacterium) IFO 3070; test: Antibacterial spectrum, MIC on Brain Heart Infusion Agar; assay type: cell-based; settings: Comparison 1 is a reference value
[8] = cited from earlier work
[9] = system: Pseudomonas aeruginosa IFO 13275; test: Antibacterial spectrum, MIC on Muller Hinton Agar; assay type: cell-based; settings: Comparison 1 is a reference value (suspension at not less than 1400 μg)
[10] = system: Salmonella entriditis IFO 3313; test: Antibacterial spectrum, MIC on Muller Hinton Agar; assay type: cell-based, Salmonella enteritidis; settings: Comparison 1 is a reference value (suspension at not less than 1400 μg)
[11] = system: Enterococcus faecalis IFO 129B4; test: Antibacterial spectrum, MIC on Muller Hinton Agar; assay type: cell-based; settings: Comparison 1 is a reference value (suspension at not less than 1400 μg)
[12] = Table 2, raw materials, amino acid plates held 500 to 20,000 μg/ml α-amino acid

Row | SMILES | MIC [2, 12] | MIC [3, 12] | also measured
1 | N[C@@H](CCC(=O)[O-])C(=O)[O-].[Ca+2] [calcium glutamate] | – | – | antibacterial effect / antibacterial property [1]: did not have antibacterial property
2 | C[C@@H](O)[C@H](N)C(=O)O [Comparison 8, threonine] | > 20000 µg/mL | > 20000 µg/mL | –
3 | NC(=O)CC[C@H](N)C(=O)O [Comparison 12, glutamine] | > 20000 µg/mL | > 20000 µg/mL | –
4 | NCC(=O)O [Comparison 3, glycine] | > 10000 µg/mL | > 10000 µg/mL | –
5 | CC[C@H](C)[C@H](N)C(=O)O [Comparison 7, isoleucine] | > 10000 µg/mL | > 10000 µg/mL | –
6 | NC(=O)C[C@H](N)C(=O)O [Comparison 11, asparagine] | > 20000 µg/mL | > 20000 µg/mL | –
7 | C[C@H](N)C(=O)O [Comparison 4, alanine] | > 10000 µg/mL | > 10000 µg/mL | –
8 | [O]=[Ca] [Comparison 1, calcium oxide] | – | – | Minimum Inhibitory Concentration CaO; Escherichia coli IFO 3301 (Gram-negative bacteria) [2, 12]: 1250 µg/mL; Minimum Inhibitory Concentration CaO, Bacilluscereus [4]: 2500 µg/mL; Minimum Inhibitory Concentration CaO, Clostridium perfringens [5]: 5000 µg/mL; Minimum Inhibitory Concentration CaO, Saccgaromyces cervisiae [6]: 625 µg/mL; Minimum Inhibitory Concentration CaO, Lactobachillus faecalis [7]: 313 µg/mL; dissolves in water ([8]; 20° C.): 0.14 wt %; water-solubility ([8]; at 20° C.): 1400 μg/gH2O; Minimum Inhibitory Concentration CaO; Staphylococcus aureus IFO 12732 (Gram-positive bacteria) [3, 12]: 1000 µg/mL; Minimum Inhibitory Concentration CaO, Pseudomonas aeruginosa [9]: 2500 µg/mL; Minimum Inhibitory Concentration CaO, Salmonella enteritidis [10]: 2500 µg/mL; Minimum Inhibitory Concentration CaO, Enterococcus faecalis [11]: 5000 µg/mL
9 | CC(C)[C@H](N)C(=O)O [Comparison 5, valine] | > 10000 µg/mL | > 10000 µg/mL | –
10 | N[C@@H](CSSC[C@H](N)C(=O)O)C(=O)O [Comparison 9, cystine] | > 20000 µg/mL | 20000 µg/mL (≈ 83.2 mM) | –
11 | [Ca+2].[OH-].[OH-] [Comparison 2, calcium hydroxide] | – | – | Minimum Inhibitory Concentration CaO; Escherichia coli IFO 3301 (Gram-negative bacteria) [2]: 900 µg/mL; Minimum Inhibitory Concentration CaO; Staphylococcus aureus IFO 12732 (Gram-positive bacteria) [3]: 850 µg/mL
12 | CC(C)C[C@H](N)C(=O)O [Comparison 6, leucine] | > 10000 µg/mL | > 10000 µg/mL | –
13 | N[C@@H](CC(=O)[O-])C(=O)[O-].[Ca+2] [aspartate calcium] | – | – | antibacterial effect / antibacterial property [1]: did not have antibacterial property
14 | CSCC[C@H](N)C(=O)O [Comparison 10, Methionine] | > 10000 µg/mL | > 10000 µg/mL | –
15 | N[C@@H](Cc1c[nH]cn1)C(=O)O [Comparison 14, hystidine] | – | – | Minimum Inhibitory Concentration CaO; Escherichia coli IFO 3301 (Gram-negative bacteria) [2, 12]: >20000 µg/mL; Minimum Inhibitory Concentration CaO; Staphylococcus aureus IFO 12732 (Gram-positive bacteria) [3, 12]: >20000 µg/mL
